Read-outs that look alike come from different tables or passages of the source.
Columns and labels:
[1] = Solubility of terephthalic acid salts in water; type: physicochemical
Experimental: 2.99 g (0.018 mol) of terephthalic acid (in a form of powder, manufactured by Sigma-Aldrich Japan; hereinafter, unless otherwise specified, reagents used were ones manufactured by Sigma-Aldrich Japan) and 0.036 mol of potassium hydroxide (in a form of granule) were put in a 50 mL-glass beaker. Distilled water was filled to obtain a volume of about 15 mL. The resulting mixture was covered with aluminum foil as a lid, heated at 50° C. for 60 minutes while stirred by a hot stirrer (manufactured by AS ONE Corporation), and allowed to cool to 30° C. After stirring at 30° C. for 120 minutes or more and confirming the precipitate remained in the solution, 1 mL of the solution was collected and subjected to centrifugation using a high speed micro centrifuge (manufactured by Tomy Seiko Co., Ltd.) (30° C., 14000 rpm (17800 g), 30 seconds) to collect the supernatant.
The concentration of terephthalic acid in this supernatant was measured and regarded as the solubility of dipotassium terephthalate. With regard to the measurement of the concentration of terephthalic acid, the sample was diluted 16,000-fold with 2.5% aqueous acetonitrile solution and analyzed in separation conditions of Table 1 using high performance liquid chromatography (Waters Corporation, LCT Premier XE). Thereafter, the concentration was calculated on the basis of a ratio of the area of terephthalic acid peaks using aqueous terephthalic acid solution with a known concentration as a control.

[2] = test system: Escherichia coli M7032 (pUXPEaLT_tpaA_tpaK_Pm_fucO_I7L_aldA) strain; experiment: Decomposition of ethylene glycol during production of TPA-DHD; type: cell-based; settings: raw material dipotassium terephthalate with ethylene glycol, final concentration 72 mM
[3] = test system: Escherichia coli K-12 M7032 strain; experiment: Decomposition of ethylene glycol during production of TPA-DHD, control strain; type: cell-based; settings: raw material dipotassium terephthalate with ethylene glycol, final concentration 72 mM
Experimental: Subsequently, in the same manner as described in Example 1, Escherichia coli M7032 (pUXPEaLT_tpaA_tpaK_Pm_fucO_I7L_aldA) strain and Escherichia coli K-12 M7032 strain which serves as a control were cultured in a mini jar fermentor. Concurrently with administration of dipotassium terephthalate which serves as a raw material, 0.278 ml (final concentration 72 mM) of ethylene glycol was placed.
Sampling was carried out 48 hours after the start of main culture. Each of the samples was subjected to analysis in conditions shown in Table 1 by an LC-TOF type mass spectrometer (Waters Corporation, LCT Premier XE). Identification of terephthalic acid was carried out with a combination of retention time of high performance liquid chromatography and an accurate mass value from the mass spectrometer, comparing to a standard sample of terephthalic acid. Among substances appeared as terephthalic acid decreased, TPA-DHD was identified on the basis of a predicted accurate mass value of TPA-DID. Further, quantification of TPA-DHD was carried out on the basis of a calibration curve prepared from an amount of terephthalic acid decreased and an increase in the peak area of TPA-DHD. […]

N.O=C([O-])c1ccc(C(=O)O)cc1.[Na+] [1-sodium 4-ammonium terephthalate, reference compound]
solubility [1]: 612 mM
solubility in water at 30° C. [1]: about 0.61 M

N.N.O=C(O)c1ccc(C(=O)O)cc1 [Diammonium terephthalate, diammonium terephthalate, reference compound]
solubility ([1]; 30 °C, water, thermodynamic from solid, in water at 30° C., rounded values of the summary, read-out: solubility in water at 30° C.): ~510 mM
solubility ([1]; 30 °C, water, thermodynamic from solid, in water, 30° C., read-out: Solubility): 512 mM

O=C(O)C1=CC(O)C(O)(C(=O)O)C=C1 (stereo not drawn) [TPA-DHD, terephthalate 1,2-cis-dihydrodiol]
amount of TPA-DHD produced 48 hours after the start of the culture [2]: 10.5 g/L
amount of TPA-DHD produced 48 hours after the start of the culture [3]: 11.1 g/L
